Measurements as given in patent US11878045B2, “Inducing cell death by hyperactivation of motility networks” (The Johns Hopkins University, priority 2016, dated 2024).
Entries after “also recorded” stand apart in the source; their conditions may differ.

Columns and labels:
[1] = system: Dictyostelium pten− cells; conditions: for cytotoxicity for Dictyostelium pten− cells: 5 μM statin, three day period (17, 41, 65 hours); for time after drug treatment at which cell death started to occur: pten− cells; for growth of pten− cells compared to DMSO control: three day period
Description: Cells were treated with 5 μM fluvastatin or DMSO. Images were taken 17 hours (left), 41 hours (middle), and 65 hours (right) after drug treatment.
Seven statins currently available on the market were tested for cytotoxicity on pten− cells. The graph quantifies growth of cells treated with 5 μM of statins or DMSO control over a three day period. Blue, orange, and yellow bars represent relative cell counts 17 hours, 41 hours, and 65 hours after drug treatment.
Statins are inhibitors of HMG-CoA reductase, the rate-controlling enzyme of the mevalonate pathway.

[2] = system: Dictyostelium pten− cells; assay: Phenotypic screen of the Johns Hopkins drug library on growth of pten− cells; assay type: cell-based; conditions: hits validated independently with purchased compounds
Source text: (§1) FIG. 7 is a diagram showing the process of drug library screen. […] Secondary screen confirmed nine compounds with effects selective for pten− but not wild-type cells.
(§2) The John Hopkins Drug Library contains 2560 drugs that are either FDA approved, have been proven in other countries for treating human diseases, or have entered phase II clinical trials. […] These compounds fell into several classes: certain phenothiazines (promazine, chlorpromazine, and thioridazine), certain antibiotics (polymyxin and chloroxine), certain statins (fluvastatin and pitavastatin), and others (benfluorex and phenazopyridine). All of the hits were validated independently with purchased compounds and repeating the experiments.

wild type cells [3] = assay: Phenotypic screen of the Johns Hopkins drug library, wild-type counter-screen; assay type: cell-based, Dictyostelium; conditions: library screen hits
Source text: as §1, §2

wild type cells [4] = assay: Statin growth test on wild type cells; assay type: cell-based, Dictyostelium
Description: Cells were treated with 5 μM fluvastatin or DMSO.

[5] = system: MCF-10A with homozygous pten deletion (pten−/−); assay: Growth of mammary epithelial cells with homozygous pten deletion under compound treatment; assay type: cell-based, human; conditions: 5 μM
Description: (§3) MCF-10A or pten−/− cells were treated with DMSO control or 5 μM pitavastatin. Upper and lower panels show 44 hours and 68 hours after drug treatment.
(§4) Cells were treated with DMSO control or 5 μM drugs. Blue, orange, and yellow bars represent 20 hours, 44 hours, and 68 hours after drug treatment.
(§5) To test whether the hits from the drug screen targeted human pre-metastatic cells, the growth of the human mammary epithelial cell lines MCF-10A, MCF-10A with homozygous pten deletion (pten−/−), or MCF10-A harboring oncogenic PIK3CA mutations under compound treatment were measured.

[6] = system: MCF10-A harboring oncogenic PIK3CA mutations; assay: Growth of mammary epithelial cells with oncogenic PIK3CA mutations under compound treatment; assay type: cell-based, human; conditions: 5 μM
Description: as §5

MCF-10A cells = assay: Growth of parental mammary epithelial cells under compound treatment; assay type: cell-based, human; conditions: 5 μM
Description: as §3, §4, §5

pten−/− cells = assay: Add-back experiments (MVA, GGPP, cholesterol) with pitavastatin; assay type: cell-based, human

Row | Molecule | cytotoxicity for Dictyostelium pten− cells [1] | effect on growth or survival of pten− cells in the library screen [2] | effect on morphology and growth of wild type cells (wild type cells [3]) | other results
1 | CC(C)c1c(C(=O)Nc2ccccc2)c(-c2ccccc2)c(-c2ccc(F)cc2)n1CC[C@@H](O)C[C@@H](O)CC(=O)O [atorvastatin] | well tolerated | – | – | –
2 | CC(Cc1cccc(C(F)(F)F)c1)NCCOC(=O)c1ccccc1 (stereo not drawn) [benfluorex] | – | selectively slow down the growth of or kill pten− cells | little or no effect | –
3 | Oc1c(Cl)cc(Cl)c2cccnc12 [chloroxine] | – | selectively slow down the growth of or kill pten− cells | little or no effect | –
4 | CN(C)CCCN1c2ccccc2Sc2ccc(Cl)cc21 [chlorpromazine] | – | selectively slow down the growth of or kill pten− cells | little or no effect | –
5 | CC(C)n1c(/C=C/C(O)CC(O)CC(=O)O)c(-c2ccc(F)cc2)c2ccccc21 (stereo not drawn) [fluvastatin] | high cytotoxicity; also recorded: higher efficacy compared to all other statins | selectively slow down the growth of or kill pten− cells | little or no effect | growth and survival of Dictyostelium pten− cells (FIG. 8) ([1]; 5 μM, images 17, 41 and 65 hours after treatment): selectively affected the growth and survival; time after drug treatment at which cell death started to occur [1]: around 40 hours; growth of pten− cells compared to DMSO control [1]: grew much slower; growth of wild type cells treated with the statins (wild type cells [4]): no significant growth defect
6 | CC[C@H](C)C(=O)O[C@H]1C[C@@H](C)C=C2C=C[C@H](C)[C@H](CC[C@@H]3C[C@@H](O)CC(=O)O3)[C@H]21 [lovastatin] | well tolerated | – | – | –
7 | Nc1ccc(/N=N/c2ccccc2)c(N)n1 [phenazopyridine] | – | selectively slow down the growth of or kill pten− cells | little or no effect | –
8 | O=C(O)C[C@H](O)C[C@H](O)/C=C/c1c(C2CC2)nc2ccccc2c1-c1ccc(F)cc1 [pitavastatin] | high cytotoxicity; also recorded: higher efficacy compared to all other statins | selectively slow down the growth of or kill pten− cells | little or no effect | time after drug treatment at which cell death started to occur [1]: around 40 hours; growth of pten− cells compared to DMSO control [1]: grew much slower; growth of wild type cells treated with the statins (wild type cells [4]): no significant growth defect; cell growth of MCF-10A pten−/− cells ([5]; 20, 44, 68 hours): selectively inhibited the growth and survival; also recorded: marked reduction in cell growth; cell death in MCF-10A pten−/− cells ([5]; 44 and 68 hours): cell death induced; also recorded: extensive cell death; cell death in PIK3CA knock-in cells [6]: extensive cell death; cell growth of PIK3CA knock-in cells [6]: marked reduction in cell growth; reduction in cell growth and cell death in parental MCF-10A cells (MCF-10A cells): not MCF-10A cells; effects of pitavastatin with supplementation of cholesterol (pten−/− cells): not cholesterol; effects of pitavastatin with supplementation of GGPP (pten−/− cells; increasing doses of pitavastatin, with or without GGPP): blocked the toxic effects; also recorded: completely blocked; effects of pitavastatin with supplementation of mevalonic acid (MVA) (pten−/− cells; increasing doses of pitavastatin, with or without MVA): blocked the toxic effects; also recorded: completely blocked
9 | CC[C@H](C)C(=O)O[C@H]1C[C@H](O)C=C2C=C[C@H](C)[C@H](CC[C@@H](O)C[C@@H](O)CC(=O)O)[C@H]21 [pravastatin] | well tolerated | – | – | –
10 | CN(C)CCCN1c2ccccc2Sc2ccccc21 [promazine] | – | selectively slow down the growth of or kill pten− cells | little or no effect | –
11 | CC(C)c1nc(N(C)S(C)(=O)=O)nc(-c2ccc(F)cc2)c1/C=C/[C@@H](O)C[C@@H](O)CC(=O)O [rosuvastatin] | well tolerated | – | – | –
12 | CSc1ccc2c(c1)N(CCC1CCCCN1C)c1ccccc1S2 (stereo not drawn) [thioridazine] | – | selectively slow down the growth of or kill pten− cells | little or no effect | –
13 | polymyxin | – | selectively slow down the growth of or kill pten− cells | little or no effect | –
